The target in assay [1] is T1, Calcitonin receptor (Homo sapiens, UniProt P30988). Also: in other assays of this panel Not Active means under 50% inhibition at 10 µM.
T1 sequence (P30988 whole entry): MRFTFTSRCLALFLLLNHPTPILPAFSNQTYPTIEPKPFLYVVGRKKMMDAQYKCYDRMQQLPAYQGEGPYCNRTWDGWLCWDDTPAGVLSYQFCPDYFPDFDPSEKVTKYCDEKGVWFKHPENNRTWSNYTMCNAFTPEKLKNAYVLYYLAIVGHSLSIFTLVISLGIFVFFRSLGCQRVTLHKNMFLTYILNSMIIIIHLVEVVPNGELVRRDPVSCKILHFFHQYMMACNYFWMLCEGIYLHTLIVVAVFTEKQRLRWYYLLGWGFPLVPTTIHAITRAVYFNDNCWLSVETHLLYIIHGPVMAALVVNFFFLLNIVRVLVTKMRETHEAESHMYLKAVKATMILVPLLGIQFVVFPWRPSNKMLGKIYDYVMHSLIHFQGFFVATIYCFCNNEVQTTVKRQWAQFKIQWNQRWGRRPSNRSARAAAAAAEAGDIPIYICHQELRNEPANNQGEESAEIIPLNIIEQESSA
It counts as cell membranes, Membrane. Conditions: t47d.

Assay [2] deals with Sigma non-opioid intracellular receptor 1 (Homo sapiens, UniProt Q99720). Nature of the assay: DRUGMATRIX: Sigma1 radioligand binding (ligand: [3H] Haloperidol). It counts as cell membranes, Jurkat, Membrane. Particulars: Not Active = under 50% inhibition at 10 µM; for Ki: read-out: Ki.
Chain of Sigma non-opioid intracellular receptor 1 (Q99720 whole entry): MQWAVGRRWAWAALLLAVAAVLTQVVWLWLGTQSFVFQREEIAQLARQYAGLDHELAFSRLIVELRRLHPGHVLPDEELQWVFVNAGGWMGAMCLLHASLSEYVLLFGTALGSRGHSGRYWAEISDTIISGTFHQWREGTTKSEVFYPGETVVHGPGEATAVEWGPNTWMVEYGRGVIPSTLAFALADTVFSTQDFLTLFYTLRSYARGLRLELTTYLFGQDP
The target of assay [3] is Mitogen-activated protein kinase 3 (Homo sapiens, UniProt P27361). Nature of the assay: DRUGMATRIX: Protein Serine/Threonine Kinase, ERK1 enzyme inhibition (substrate: Myelin Basic Protein). More on the design: species or system Escherichia coli. Conditions: Not Active = under 50% inhibition at 10 µM.
Chain of Mitogen-activated protein kinase 3 (P27361 whole entry): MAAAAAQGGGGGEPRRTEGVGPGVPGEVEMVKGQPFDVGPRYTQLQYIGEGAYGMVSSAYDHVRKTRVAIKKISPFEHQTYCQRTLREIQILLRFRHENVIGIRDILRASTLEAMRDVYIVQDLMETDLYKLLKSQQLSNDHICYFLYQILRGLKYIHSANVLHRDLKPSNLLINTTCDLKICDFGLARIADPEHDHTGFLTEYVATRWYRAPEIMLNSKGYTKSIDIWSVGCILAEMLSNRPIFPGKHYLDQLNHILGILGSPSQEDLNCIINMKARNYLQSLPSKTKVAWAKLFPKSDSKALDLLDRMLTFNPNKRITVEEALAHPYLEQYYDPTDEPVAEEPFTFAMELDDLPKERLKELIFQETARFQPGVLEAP
Assay [4] is described as follows: DRUGMATRIX: Glutamate, NMDA, Agonism radioligand binding (ligand: [3H] CGP-39653). It counts as cell membranes, Rattus norvegicus, Wistar, Cerebral cortex, Membrane. Particulars: Not Active = under 50% inhibition at 10 µM.
The target in assay [5] is Substance-P receptor (Homo sapiens, UniProt P25103). It counts as cell membranes, CHO, Membrane. Also: in other assays of this panel Not Active means under 50% inhibition at 10 µM.
Chain of Substance-P receptor (P25103 whole entry): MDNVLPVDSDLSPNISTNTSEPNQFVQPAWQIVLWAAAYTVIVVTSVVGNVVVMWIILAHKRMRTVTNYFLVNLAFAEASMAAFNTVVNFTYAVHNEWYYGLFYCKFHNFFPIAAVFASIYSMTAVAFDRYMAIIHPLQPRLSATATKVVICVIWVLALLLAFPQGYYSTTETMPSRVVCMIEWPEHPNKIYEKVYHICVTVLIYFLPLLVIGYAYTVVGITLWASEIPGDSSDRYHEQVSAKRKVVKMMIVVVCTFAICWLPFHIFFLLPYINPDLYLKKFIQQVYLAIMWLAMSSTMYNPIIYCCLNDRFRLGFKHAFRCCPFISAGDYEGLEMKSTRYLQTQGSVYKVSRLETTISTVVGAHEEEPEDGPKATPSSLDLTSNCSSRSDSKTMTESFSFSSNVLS
The target in assay [6] is T2, Alpha-2A adrenergic receptor (Homo sapiens, UniProt P08913). Also: in other assays of this panel Not Active means under 50% inhibition at 10 µM.
T2 sequence (P08913 whole entry): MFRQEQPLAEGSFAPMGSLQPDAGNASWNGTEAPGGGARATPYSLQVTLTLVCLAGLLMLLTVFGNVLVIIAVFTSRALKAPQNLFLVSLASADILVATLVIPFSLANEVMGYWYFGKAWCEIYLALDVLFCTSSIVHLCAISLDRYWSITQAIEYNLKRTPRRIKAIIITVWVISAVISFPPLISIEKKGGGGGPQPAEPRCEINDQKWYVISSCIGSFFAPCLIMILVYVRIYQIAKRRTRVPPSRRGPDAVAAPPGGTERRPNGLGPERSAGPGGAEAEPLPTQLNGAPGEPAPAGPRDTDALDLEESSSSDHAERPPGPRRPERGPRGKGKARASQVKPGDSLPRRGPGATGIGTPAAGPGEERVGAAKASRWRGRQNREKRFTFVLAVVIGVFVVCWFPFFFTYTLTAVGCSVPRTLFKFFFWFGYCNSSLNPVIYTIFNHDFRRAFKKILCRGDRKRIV
It counts as cell membranes, Sf9, Membrane. Particulars: for Ki: read-out: Ki.

Among the data in ChEMBL document CHEMBL1909046, “DrugMatrix in vitro pharmacology data” are IC50 and Ki values, retold here.

Each structure is given as a SMILES string.

The IC50 is the midpoint of a concentration-inhibition curve. A word on the Ki: it is a measure of affinity in units of concentration, obtained from inhibition or displacement. Turning to `Cc1c(C)c2c(c(C)c1O)CCC(C)(CN1CCN(c3cc(N4CCCC4)nc(N4CCCC4)n3)CC1)O2` (configuration not stated), the 50% inhibitory concentration (IC50) entry was “Not Active” in assay [1]; “Not Active” in assay [2] (jurkat); 4960 nM in assay [3] (read-out: IC50); “Not Active” in assay [4]; “Not Active” in assay [5] (cho); “Not Active” in assay [6] (sf9). Further, the Ki result in assay [4] is “Not Active”.

As to `COc1ccc(CCN(C)CCCC(C#N)(c2ccc(OC)c(OC)c2)C(C)C)cc1OC` (configuration not stated), the IC50 entry in assay [1], in assay [2] (jurkat), in assay [3], in assay [4] and in assay [5] (cho) was “Not Active” each time. In addition, the Ki entry in assay [4] is on record as “Not Active”.

`CC(C)Cc1ccc([C@@H](C)C(=O)O)cc1` [(R)-IBUPROPHEN]: the IC50 result in assay [1], in assay [2] (jurkat), in assay [3], in assay [4], in assay [5] (cho) and in assay [6] (sf9) was “Not Active” in each case. Also, the Ki result in assay [4] is listed as “Not Active”.

Consider `CN(C)CCOC(c1ccccc1)c1ccccc1` [DIPHENHYDRAMINE], for which the IC50 result in assay [1], in assay [2] (jurkat), in assay [3], in assay [5] (cho) and in assay [6] (sf9) was “Not Active” in each case.

As for `Clc1ccc(COC(Cn2ccnc2)c2ccc(Cl)cc2Cl)cc1` (configuration not stated) [ECONAZOLE], the IC50 result in assay [1] was “Not Active”; in assay [2] (read-out: IC50), 21100 nM; in assay [3], “Not Active”; in assay [5] (read-out: IC50) it was 11900 nM. The values for the Ki in assay [2] and in assay [5] (read-out: Ki) were 8870 nM and 6480 nM, respectively.

Regarding `CCN(CC)CCOc1ccc(/C(=C(/Cl)c2ccccc2)c2ccccc2)cc1` [ENCLOMIPHENE], the IC50 entry in assay [1], in assay [3] and in assay [5] (cho) was “Not Active” throughout.

In the case of `Fc1ccc(C(c2ccc(F)cc2)N2CCN(C/C=C/c3ccccc3)CC2)cc1` [FLUNARIZINE], the IC50 result was “Not Active” in assay [1]; 25 nM in assay [2] (read-out: IC50); “Not Active” in assay [3]; “Not Active” in assay [5] (cho); 581 nM in assay [6] (read-out: IC50). For the same molecule, the values for the Ki in assay [2] and in assay [6] were 10 nM and 218 nM, respectively.

Turning to `CNCCC(Oc1ccc(C(F)(F)F)cc1)c1ccccc1` (configuration not stated) [FLUOXETINE], the IC50 entry in assay [1], in assay [3], in assay [5] (cho) and in assay [6] (sf9) was “Not Active” in each case.

For `Cc1ccc(NC(=O)c2ccc(CN3CCN(C)CC3)cc2)cc1Nc1nccc(-c2cccnc2)n1` [IMATINIB], the IC50 result in assay [1], in assay [2] (jurkat), in assay [5] (cho) and in assay [6] (sf9) was “Not Active” each time.

Regarding `CC(C)Oc1ccc2c(=O)c(-c3ccccc3)coc2c1` [IPRIFLAVONE], the IC50 result in assay [1], in assay [2] (jurkat), in assay [3], in assay [4], in assay [5] (cho) and in assay [6] (sf9) was “Not Active” throughout. Further, the Ki result in assay [4] was “Not Active”.

In the case of `CC(C)NCC(O)c1ccc(O)c(O)c1` (configuration not stated) [ISOPROTERENOL], the concentration for half-maximal inhibition (IC50) entry in assay [1], in assay [2] (jurkat), in assay [3], in assay [4], in assay [5] (cho) and in assay [6] (sf9) was “Not Active” throughout. Besides, the Ki result in assay [4] is “Not Active”.

Take `CNC1(c2ccccc2Cl)CCCCC1=O` (configuration not stated) [KETAMINE]: the IC50 entry in assay [1], in assay [2] (jurkat), in assay [3], in assay [4], in assay [5] (cho) and in assay [6] (sf9) was “Not Active” each time. For the same molecule, the Ki result in assay [4] is on record as “Not Active”.

Regarding `N#Cc1ccc(C(c2ccc(C#N)cc2)n2cncn2)cc1` [LETROZOLE], the IC50 result in assay [1], in assay [2] (jurkat), in assay [3], in assay [4], in assay [5] (cho) and in assay [6] (sf9) was “Not Active” each time. In assay [4], the Ki result is given as “Not Active”.

With `CCN1CCC[C@H]1CNC(=O)c1cc(S(N)(=O)=O)ccc1OC` [LEVOSULPIRIDE], the IC50 entry in assay [1], in assay [2] (jurkat), in assay [3], in assay [4], in assay [5] (cho) and in assay [6] (sf9) was “Not Active” throughout. The Ki result in assay [4] was “Not Active”.

In the case of `CCN(CC)CC(=O)Nc1c(C)cccc1C` [LIDOCAINE], the IC50 result in assay [1], in assay [2] (jurkat), in assay [3], in assay [4], in assay [5] (cho) and in assay [6] (sf9) was “Not Active” in each case. Besides, in assay [4], the Ki entry is listed as “Not Active”.

As to `O=C1Nc2ccc(Cl)cc2C(c2ccccc2Cl)=NC1O` (configuration not stated) [LORAZEPAM], the concentration for half-maximal inhibition (IC50) result in assay [1], in assay [2] (jurkat), in assay [3], in assay [4], in assay [5] (cho) and in assay [6] (sf9) was “Not Active” in each case. In addition, the Ki result in assay [4] is “Not Active”.

Turning to `CO[C@@H]1[C@@H](OC)[C@H](C)[C@@](O)(CC(=O)O)O[C@H]1[C@H](C)[C@H]1O[C@@]2(CC[C@@](C)([C@H]3CC[C@@](C)([C@@H]4O[C@@H]([C@H]5O[C@](C)(O)[C@H](C)C[C@@H]5C)C[C@@H]4O[C@@H]4C[C@H](OC)[C@@H](OC)[C@H](C)O4)O3)O2)C[C@H](O)[C@H]1C` [MADURAMICIN ACID], the IC50 result was “Not Active” in assay [1]; “Not Active” in assay [2] (jurkat); “Not Active” in assay [3]; “Not Active” in assay [4]; “Not Active” in assay [5] (cho); 180 nM in assay [6] (read-out: IC50). Besides, the values for the Ki entry in assay [4] and in assay [6] were “Not Active” and 67 nM, respectively.

On to `COc1c2occc2cc2ccc(=O)oc12` [METHOXSALEN], for which the 50% inhibitory concentration (IC50) entry in assay [1], in assay [2] (jurkat), in assay [3], in assay [4], in assay [5] (cho) and in assay [6] (sf9) was “Not Active” in each case. Moreover, the Ki entry in assay [4] was “Not Active”.

For `C[C@H]1C[C@@H]2[C@H]([C@@H](O)C[C@@]3(C)[C@H]2CC[C@]3(O)C(=O)CO)[C@@]2(C)C=CC(=O)C=C12` [METHYLPREDNISOLONE], the IC50 entry in assay [1], in assay [2] (jurkat), in assay [3], in assay [4], in assay [5] (cho) and in assay [6] (sf9) was “Not Active” each time. Moreover, the Ki entry in assay [4] is “Not Active”.

Take `Cc1cccc(C)c1OCC(C)N` (configuration not stated) [MEXILETINE]: the concentration for half-maximal inhibition (IC50) result in assay [1], in assay [2] (jurkat), in assay [3], in assay [4], in assay [5] (cho) and in assay [6] (sf9) was “Not Active” each time. In addition, in assay [4], the Ki entry is given as “Not Active”.

On to `CN[C@H]1CC[C@@H](c2ccc(Cl)c(Cl)c2)c2ccccc21` [SERTRALINE], for which the IC50 entry in assay [1], in assay [3] and in assay [5] (cho) was “Not Active” each time.

For `Clc1ccccc1CN1CCc2sccc2C1` [TICLOPIDINE], the IC50 result is “Not Active” in assay [1]; 426 nM in assay [2] (read-out: IC50); “Not Active” in assay [3]; “Not Active” in assay [4]; “Not Active” in assay [5] (cho). In addition, the Ki is 179 nM in assay [2] and “Not Active” in assay [4].
